From article PMC10813298, “Evidence of Guanidines Potential against Leishmania (Viannia) braziliensis: Exploring In Vitro Effectiveness, Toxicities and of Innate Immunity Response Effects” (Biomolecules, 2023)
Read-outs that look alike come from different tables or passages of the source.

What was measured:
[1] = Cytotoxicity against RAW 264.7 macrophages (MTT); type: cell-based, murine; conditions: mouse, RAW 264.7 macrophages, pH 7.2, RAW 264.7 cells
Experimental: Murine macrophage cell line RAW 264.7 was used in this study. The cells were cultured in 75 cm^2 cell culture flasks (Corning Glass Workers, New York, NY, USA) using DMEM medium with a pH of 7.2, supplemented with 10% FBS and 1% antibiotic solution (containing 100 U/mL penicillin and 100 μg/mL streptomycin). The cells were maintained in an incubator at a temperature of 37 °C with 5% CO2. The spikes were performed after the cells reached complete confluence, characterized by the formation of a monolayer of cells around 48 h to 72 h after packaging.
(§1) In this study, we utilized the RAW 264.7 macrophages line (obtained from ATCC: code TIB-71™),human embryonic kidney cell line HEK-293 (obtained from ATCC: code CRL-1573™)and two human cancer cell cultures: the colon carcinoma cell line CaCo-2 and the adenocarcinomic human alveolar basal epithelial cell A549 (also obtained from ATCC: codesHTB-37™ and CCL-185™).These cell lines were cultured in Dulbecco’s modified Eagle medium (DMEM) from Gibco by Life Technologies (LifeTech Austria, Vienna, Austria). The growth medium was supplemented with 5% fetal bovine serum (FBS) from Gibco by Life Technologies and 1% penicillin-streptomycin obtained from Sigma-Aldrich (Vienna, Austria). The cells were maintained at 37 °C with 5% CO2 in a humidified incubator, and regular checks for mycoplasma contamination were carried out.
(§2) For experimental purposes, the cells were seeded into 96-well plates at a density of 2 × 10^4 cells/mL, with each well containing 100 µL of the cell suspension. The cells were allowed to adhere for 24 h. Subsequently, they were exposed to 100 µL of the test compounds, which were diluted in DMEM, with concentrations ranging from 2 to 600 µmol/L. The stock solutions of these compounds were prepared in water with 10% (v/v) dimethyl sulfoxide (DMSO) and stored at 4 °C.
(§3) To assess cell viability after 72 h of exposure to the compounds, we employed a 3-(4,5-dimethylthiazol-2-yl)-2,5-diphenyltetrazolium bromide (MTT)-based vitality assay kit (EZ4U, Biomedica, Vienna, Austria). Briefly, we added 20 µL of the EZ4U assay solution to each well and incubated the plates in the dark for 2 h. Subsequently, we measured the absorbance using a microplate reader at 450 nm, with 620 nm as a reference to reduce unspecific background values. For reliability, all experiments were conducted three times with triplicate samples.
The different mean concentrations for promastigotes (IC50) and macrophages (CC50) were calculated using nonlinear regression. For comparisons between groups, ANOVA analysis of variance was performed followed by Tukey’s test in a statistical program, taking the p-value < 0.05 as the maximum level of statistical significance.

[2] = system: L. (V.) braziliensis axenic amastigotes; assay: Antileishmanial activity on axenic amastigotes (MTT, 72 h); type: cell-based, Leishmania (Viannia) braziliensis
Experimental: In vitro amastigogenesis was performed by transformation from promastigotes at the stationary phase of growth to obtention axenic amastigotes. This process involved altering the culture conditions to Schneider’s medium with a pH of 5.5, supplementing them with 5% FBS, and incubating them at a temperature of 32 °C [17].
Assessment of antileishmanial activity against promastigote and amastigote axenic forms of parasites followed the method described by Rodrigues et al. and involved the following steps: L. (V.) braziliensis parasites were cultured in 96-well plates at a concentration of 1 × 10^6 parasites per well. Each well contained 100 μL of supplemented Schneider medium. Serial concentrations of the test substances, ranging from 50 to 1.56 μmol/L, were prepared. Reference drugs, meglumine antimoniate (20 to 40,000 μmol/L) and amphotericin B (0.031 to 2 μmol/L) were also prepared. These concentrations were used to assess the effects of the test substances in comparison to reference drugs. The plates were incubated in a BOD incubator at 26 °C for 72 h. After the 72 h incubation period, 10 μL of MTT (5 mg/mL) was added to each well. The plates were then incubated for an additional 4 h. At the end of the 4 h incubation, formazan crystals formed by the reduction of the MTT salt were solubilized by adding 50 μL of a 10% (w/v) sodium dodecyl sulfate (SDS) solution in distilled water. Absorbance was measured using a microplate reader at a wavelength of 540 nm (Biosystems ELx800 model, Curitiba, PR, Brazil). This measurement quantified the metabolic activity of the parasites, which is indicative of their viability and proliferation. Schneider medium containing 0.2% DMSO was used as a negative control in the tests.

TNF-α = assay: Cytokine production in supernatant of infected macrophages (ELISA), TNF-α; type: cell-based, murine; conditions: supernatant of RAW 264.7 macrophages infected with L. (V.) braziliensis
Description: To assess the production of cytokines TNF-α and IL-12 (associated with Th1 response), as well as IL-10 and IL-6 (associated with Th2 response), in the supernatants of the macrophage infection assay, the sandwich enzyme-linked immunosorbent assay (ELISA) method was employed, following the manufacturer’s instructions (eBioscience^TM, San Diego, CA, USA). Initially, capture antibodies specific to TNF-α, IL-6, IL-10, and IL-12 were sensitized in ELISA plates (NUNC-ImmunoTM, Sigma-Aldrich, St. Louis, MO, USA). The plates were incubated at 4 °C for 18 h. After the incubation period, all wells were washed with a solution containing 0.05% PBS and Tween 20 (Sigma-Aldrich, St. Louis, MO, USA). A blocking solution containing 10% FBS in PBS was added to the wells and incubated for 1 h. Subsequently, the wells were washed again. The supernatant obtained from the macrophage infection assay was added to the respective wells. Known concentrations of recombinant cytokines (TNF-α, IL-10, IL-6, and IL-12) were also added to the plate in parallel, covering a range from high to low concentrations. The plates were maintained at 4 °C for another 18 h. Following this incubation, additional washes were performed. The detector complex, consisting of biotinylated detection antibodies, was added to the wells. The plates were incubated for an additional hour. After another round of washing, the enzymatic complex avidin-peroxidase was added to each well. The plates were incubated for 30 min at room temperature. The reaction was initiated by adding a substrate solution containing tetramethylbenzidine and hydrogen peroxide. This reaction was allowed to proceed for 15 min. To stop the reaction, 1N sulfuric acid was added to each well. The absorbance was measured in a plate reader at a wavelength of 450 nm. The concentration of cytokines (TNF-α, IL-10, IL-6, and IL-12) in the supernatants was determined by interpolation from the standard curve.

[3] = Cell toxicity, MTT-based EZ4U assay, CaCo-2; conditions: human, CaCo-2 cells (colon carcinoma); for viability at 72 h, 2.34 µmol/L: CACO2, 2.34 µmol/L; for viability at 72 h, 4.6875 µmol/L: CACO2, 4.6875 µmol/L; for viability at 72 h, 9.375 µmol/L: CACO2, 9.375 µmol/L; for viability at 72 h, 18.75 µmol/L: CACO2, 18.75 µmol/L; for viability at 72 h, 37.5 µmol/L: CACO2, 37.5 µmol/L; for viability at 72 h, 75 µmol/L: CACO2, 75 µmol/L; for viability at 72 h, 150 µmol/L: CACO2, 150 µmol/L; for viability at 72 h, 300 µmol/L: CACO2, 300 µmol/L; for viability at 72 h, 600 µmol/L: CACO2, 600 µmol/L
Experimental: as §1, §2, §3

[4] = system: L. (L.) amazonensis promastigotes; parameters: method as in PMID 30913526; conditions: read-out: IC50 antipromastigote activity; cited from earlier work

For `O=C(/N=C(/NCc1ccccc1)Nc1ccc([N+](=O)[O-])cc1)c1ccccc1` [LQOF-G1, (Z)-N-benzoyl-N-benzyl-N-(4-nitrophenyl)guanidine], which CC50 at 72 h [1] is on record?
Its CC50 at 72 h is 147 ± 2 µM.

What about the EC50 [2] of the same compound?
Its EC50 is 4.3 ± 0.2 µM.

And the EC50 ([2]; Leishmania braziliensis)?
Its EC50 is 4.27 µM.

And the TNF-α level (TNF-α)?
Its TNF-α level is “increased”.

What about the viability at 72 h, 2.34 µmol/L [3] of the same compound?
The viability at 72 h, 2.34 µmol/L was 106 ± 8%.

What about the viability at 72 h, 4.6875 µmol/L [3] of the same compound?
The viability at 72 h, 4.6875 µmol/L was 109 ± 5%.

And the viability at 72 h, 9.375 µmol/L [3]?
The viability at 72 h, 9.375 µmol/L was 109 ± 7%.

What about the viability at 72 h, 18.75 µmol/L [3] of the same compound?
The viability at 72 h, 18.75 µmol/L was 109 ± 10%.

What about the viability at 72 h, 37.5 µmol/L [3] of the same compound?
Its viability at 72 h, 37.5 µmol/L is 97 ± 13%.

What about the viability at 72 h, 75 µmol/L [3] of the same compound?
The viability at 72 h, 75 µmol/L was 99 ± 7%.

What about the viability at 72 h, 150 µmol/L [3] of the same compound?
Its viability at 72 h, 150 µmol/L is 107 ± 3%.

And the viability at 72 h, 300 µmol/L [3]?
Its viability at 72 h, 300 µmol/L is 103 ± 10%.

And the viability at 72 h, 600 µmol/L [3]?
The viability at 72 h, 600 µmol/L was 119 ± 5%.

What about the IC50 [4] of the same compound?
The IC50 was 11.5 µM.

What does the source list for `O=C(/N=C(/NCc1ccccc1)Nc1ccc(Br)cc1)c1ccccc1` [LQOF-G2, (Z)-N-benzoyl-N-benzyl-N-(4-bromophenyl)guanidine]?
CC50 at 72 h [1]: 164 ± 2.9 µM; EC50 ([2]; Leishmania braziliensis): 5 ± 0.8 µM; TNF-α level (TNF-α): increased; viability at 72 h, 2.34 µmol/L [3]: 106 ± 3.6%; viability at 72 h, 4.6875 µmol/L [3]: 109 ± 13.6%; viability at 72 h, 9.375 µmol/L [3]: 109 ± 14.7%; viability at 72 h, 18.75 µmol/L [3]: 103 ± 5.7%; viability at 72 h, 37.5 µmol/L [3]: 97 ± 4.9%; viability at 72 h, 75 µmol/L [3]: 99 ± 6.4%; viability at 72 h, 150 µmol/L [3]: 107 ± 5.3%; viability at 72 h, 300 µmol/L [3]: 103 ± 6.6%; viability at 72 h, 600 µmol/L [3]: 119 ± 8.8%; IC50 [4]: 19.6 µM

Which CC50 at 72 h [1] does the source give for `CC(C)(C)c1ccc(N/C(=N\C(=O)c2ccccc2)NCc2ccccc2)cc1` [LQOF-G6, (Z)-N-benzoyl-N-benzyl-N-(4-tert-butylphenyl)guanidine] here?
The CC50 at 72 h was 154 ± 2.3 µM.

And the EC50 ([2]; Leishmania braziliensis)?
The EC50 was 4.3 ± 0.7 µM.

And the TNF-α level (TNF-α)?
The TNF-α level was “increased”.

And the IC50 [4]?
The IC50 was 25.9 µM.

With `O=C(/N=C(/NCc1ccccc1)Nc1ccc(I)cc1)c1ccccc1` [LQOF-G7, (Z)-N-benzoyl-N-benzyl-N-(4-iodophenyl)guanidine] as the compound, how does the CC50 at 72 h [1] read?
The CC50 at 72 h was 183 ± 3.1 µM.

And the EC50 ([2]; Leishmania braziliensis)?
Its EC50 is 6.1 µM.

What about the IC50 [4] of the same compound?
Its IC50 is 15.9 µM.

Which results are given for `O=C(/N=C(/NCc1ccc(Cl)cc1Cl)Nc1ccc(Br)cc1)c1ccccc1` [LQOF-G32, (Z)-N-benzoyl-N-(2,4-di-chlorobenzyl)-N-(4-bromophenyl)guanidine]?
CC50 at 72 h [1]: 275.9 ± 2.4 µM; viability at 72 h, 2.34 µmol/L [3]: 138 ± 8.4%; viability at 72 h, 4.6875 µmol/L [3]: 123 ± 11.4%; viability at 72 h, 9.375 µmol/L [3]: 117 ± 7.3%; viability at 72 h, 18.75 µmol/L [3]: 116 ± 9.7%; viability at 72 h, 37.5 µmol/L [3]: 79 ± 6.4%; viability at 72 h, 75 µmol/L [3]: 53 ± 14.8%; viability at 72 h, 150 µmol/L [3]: 45 ± 10.4%; viability at 72 h, 300 µmol/L [3]: 45 ± 15.9%; viability at 72 h, 600 µmol/L [3]: 66 ± 12.3%
